Data taken from publication PMC8206283, “Three New Quinazoline-Containing Indole Alkaloids From the Marine-Derived Fungus Aspergillus sp. HNMF114” (Frontiers in Microbiology, 2021).

Biological target: T1, ryanodine receptor from Spodoptera frugiperda (sfRyR) (Spodoptera frugiperda, UniProt A0A4P8L6R5)
T1 construct: gene RyR
Test: time-lapse R-CEPIA1er [Ca2+]ER measurement in HEK cells stably expressing sfRyR (positive control)
Format: cell-based

T1 sequence (A0A4P8L6R5 entry or part of it): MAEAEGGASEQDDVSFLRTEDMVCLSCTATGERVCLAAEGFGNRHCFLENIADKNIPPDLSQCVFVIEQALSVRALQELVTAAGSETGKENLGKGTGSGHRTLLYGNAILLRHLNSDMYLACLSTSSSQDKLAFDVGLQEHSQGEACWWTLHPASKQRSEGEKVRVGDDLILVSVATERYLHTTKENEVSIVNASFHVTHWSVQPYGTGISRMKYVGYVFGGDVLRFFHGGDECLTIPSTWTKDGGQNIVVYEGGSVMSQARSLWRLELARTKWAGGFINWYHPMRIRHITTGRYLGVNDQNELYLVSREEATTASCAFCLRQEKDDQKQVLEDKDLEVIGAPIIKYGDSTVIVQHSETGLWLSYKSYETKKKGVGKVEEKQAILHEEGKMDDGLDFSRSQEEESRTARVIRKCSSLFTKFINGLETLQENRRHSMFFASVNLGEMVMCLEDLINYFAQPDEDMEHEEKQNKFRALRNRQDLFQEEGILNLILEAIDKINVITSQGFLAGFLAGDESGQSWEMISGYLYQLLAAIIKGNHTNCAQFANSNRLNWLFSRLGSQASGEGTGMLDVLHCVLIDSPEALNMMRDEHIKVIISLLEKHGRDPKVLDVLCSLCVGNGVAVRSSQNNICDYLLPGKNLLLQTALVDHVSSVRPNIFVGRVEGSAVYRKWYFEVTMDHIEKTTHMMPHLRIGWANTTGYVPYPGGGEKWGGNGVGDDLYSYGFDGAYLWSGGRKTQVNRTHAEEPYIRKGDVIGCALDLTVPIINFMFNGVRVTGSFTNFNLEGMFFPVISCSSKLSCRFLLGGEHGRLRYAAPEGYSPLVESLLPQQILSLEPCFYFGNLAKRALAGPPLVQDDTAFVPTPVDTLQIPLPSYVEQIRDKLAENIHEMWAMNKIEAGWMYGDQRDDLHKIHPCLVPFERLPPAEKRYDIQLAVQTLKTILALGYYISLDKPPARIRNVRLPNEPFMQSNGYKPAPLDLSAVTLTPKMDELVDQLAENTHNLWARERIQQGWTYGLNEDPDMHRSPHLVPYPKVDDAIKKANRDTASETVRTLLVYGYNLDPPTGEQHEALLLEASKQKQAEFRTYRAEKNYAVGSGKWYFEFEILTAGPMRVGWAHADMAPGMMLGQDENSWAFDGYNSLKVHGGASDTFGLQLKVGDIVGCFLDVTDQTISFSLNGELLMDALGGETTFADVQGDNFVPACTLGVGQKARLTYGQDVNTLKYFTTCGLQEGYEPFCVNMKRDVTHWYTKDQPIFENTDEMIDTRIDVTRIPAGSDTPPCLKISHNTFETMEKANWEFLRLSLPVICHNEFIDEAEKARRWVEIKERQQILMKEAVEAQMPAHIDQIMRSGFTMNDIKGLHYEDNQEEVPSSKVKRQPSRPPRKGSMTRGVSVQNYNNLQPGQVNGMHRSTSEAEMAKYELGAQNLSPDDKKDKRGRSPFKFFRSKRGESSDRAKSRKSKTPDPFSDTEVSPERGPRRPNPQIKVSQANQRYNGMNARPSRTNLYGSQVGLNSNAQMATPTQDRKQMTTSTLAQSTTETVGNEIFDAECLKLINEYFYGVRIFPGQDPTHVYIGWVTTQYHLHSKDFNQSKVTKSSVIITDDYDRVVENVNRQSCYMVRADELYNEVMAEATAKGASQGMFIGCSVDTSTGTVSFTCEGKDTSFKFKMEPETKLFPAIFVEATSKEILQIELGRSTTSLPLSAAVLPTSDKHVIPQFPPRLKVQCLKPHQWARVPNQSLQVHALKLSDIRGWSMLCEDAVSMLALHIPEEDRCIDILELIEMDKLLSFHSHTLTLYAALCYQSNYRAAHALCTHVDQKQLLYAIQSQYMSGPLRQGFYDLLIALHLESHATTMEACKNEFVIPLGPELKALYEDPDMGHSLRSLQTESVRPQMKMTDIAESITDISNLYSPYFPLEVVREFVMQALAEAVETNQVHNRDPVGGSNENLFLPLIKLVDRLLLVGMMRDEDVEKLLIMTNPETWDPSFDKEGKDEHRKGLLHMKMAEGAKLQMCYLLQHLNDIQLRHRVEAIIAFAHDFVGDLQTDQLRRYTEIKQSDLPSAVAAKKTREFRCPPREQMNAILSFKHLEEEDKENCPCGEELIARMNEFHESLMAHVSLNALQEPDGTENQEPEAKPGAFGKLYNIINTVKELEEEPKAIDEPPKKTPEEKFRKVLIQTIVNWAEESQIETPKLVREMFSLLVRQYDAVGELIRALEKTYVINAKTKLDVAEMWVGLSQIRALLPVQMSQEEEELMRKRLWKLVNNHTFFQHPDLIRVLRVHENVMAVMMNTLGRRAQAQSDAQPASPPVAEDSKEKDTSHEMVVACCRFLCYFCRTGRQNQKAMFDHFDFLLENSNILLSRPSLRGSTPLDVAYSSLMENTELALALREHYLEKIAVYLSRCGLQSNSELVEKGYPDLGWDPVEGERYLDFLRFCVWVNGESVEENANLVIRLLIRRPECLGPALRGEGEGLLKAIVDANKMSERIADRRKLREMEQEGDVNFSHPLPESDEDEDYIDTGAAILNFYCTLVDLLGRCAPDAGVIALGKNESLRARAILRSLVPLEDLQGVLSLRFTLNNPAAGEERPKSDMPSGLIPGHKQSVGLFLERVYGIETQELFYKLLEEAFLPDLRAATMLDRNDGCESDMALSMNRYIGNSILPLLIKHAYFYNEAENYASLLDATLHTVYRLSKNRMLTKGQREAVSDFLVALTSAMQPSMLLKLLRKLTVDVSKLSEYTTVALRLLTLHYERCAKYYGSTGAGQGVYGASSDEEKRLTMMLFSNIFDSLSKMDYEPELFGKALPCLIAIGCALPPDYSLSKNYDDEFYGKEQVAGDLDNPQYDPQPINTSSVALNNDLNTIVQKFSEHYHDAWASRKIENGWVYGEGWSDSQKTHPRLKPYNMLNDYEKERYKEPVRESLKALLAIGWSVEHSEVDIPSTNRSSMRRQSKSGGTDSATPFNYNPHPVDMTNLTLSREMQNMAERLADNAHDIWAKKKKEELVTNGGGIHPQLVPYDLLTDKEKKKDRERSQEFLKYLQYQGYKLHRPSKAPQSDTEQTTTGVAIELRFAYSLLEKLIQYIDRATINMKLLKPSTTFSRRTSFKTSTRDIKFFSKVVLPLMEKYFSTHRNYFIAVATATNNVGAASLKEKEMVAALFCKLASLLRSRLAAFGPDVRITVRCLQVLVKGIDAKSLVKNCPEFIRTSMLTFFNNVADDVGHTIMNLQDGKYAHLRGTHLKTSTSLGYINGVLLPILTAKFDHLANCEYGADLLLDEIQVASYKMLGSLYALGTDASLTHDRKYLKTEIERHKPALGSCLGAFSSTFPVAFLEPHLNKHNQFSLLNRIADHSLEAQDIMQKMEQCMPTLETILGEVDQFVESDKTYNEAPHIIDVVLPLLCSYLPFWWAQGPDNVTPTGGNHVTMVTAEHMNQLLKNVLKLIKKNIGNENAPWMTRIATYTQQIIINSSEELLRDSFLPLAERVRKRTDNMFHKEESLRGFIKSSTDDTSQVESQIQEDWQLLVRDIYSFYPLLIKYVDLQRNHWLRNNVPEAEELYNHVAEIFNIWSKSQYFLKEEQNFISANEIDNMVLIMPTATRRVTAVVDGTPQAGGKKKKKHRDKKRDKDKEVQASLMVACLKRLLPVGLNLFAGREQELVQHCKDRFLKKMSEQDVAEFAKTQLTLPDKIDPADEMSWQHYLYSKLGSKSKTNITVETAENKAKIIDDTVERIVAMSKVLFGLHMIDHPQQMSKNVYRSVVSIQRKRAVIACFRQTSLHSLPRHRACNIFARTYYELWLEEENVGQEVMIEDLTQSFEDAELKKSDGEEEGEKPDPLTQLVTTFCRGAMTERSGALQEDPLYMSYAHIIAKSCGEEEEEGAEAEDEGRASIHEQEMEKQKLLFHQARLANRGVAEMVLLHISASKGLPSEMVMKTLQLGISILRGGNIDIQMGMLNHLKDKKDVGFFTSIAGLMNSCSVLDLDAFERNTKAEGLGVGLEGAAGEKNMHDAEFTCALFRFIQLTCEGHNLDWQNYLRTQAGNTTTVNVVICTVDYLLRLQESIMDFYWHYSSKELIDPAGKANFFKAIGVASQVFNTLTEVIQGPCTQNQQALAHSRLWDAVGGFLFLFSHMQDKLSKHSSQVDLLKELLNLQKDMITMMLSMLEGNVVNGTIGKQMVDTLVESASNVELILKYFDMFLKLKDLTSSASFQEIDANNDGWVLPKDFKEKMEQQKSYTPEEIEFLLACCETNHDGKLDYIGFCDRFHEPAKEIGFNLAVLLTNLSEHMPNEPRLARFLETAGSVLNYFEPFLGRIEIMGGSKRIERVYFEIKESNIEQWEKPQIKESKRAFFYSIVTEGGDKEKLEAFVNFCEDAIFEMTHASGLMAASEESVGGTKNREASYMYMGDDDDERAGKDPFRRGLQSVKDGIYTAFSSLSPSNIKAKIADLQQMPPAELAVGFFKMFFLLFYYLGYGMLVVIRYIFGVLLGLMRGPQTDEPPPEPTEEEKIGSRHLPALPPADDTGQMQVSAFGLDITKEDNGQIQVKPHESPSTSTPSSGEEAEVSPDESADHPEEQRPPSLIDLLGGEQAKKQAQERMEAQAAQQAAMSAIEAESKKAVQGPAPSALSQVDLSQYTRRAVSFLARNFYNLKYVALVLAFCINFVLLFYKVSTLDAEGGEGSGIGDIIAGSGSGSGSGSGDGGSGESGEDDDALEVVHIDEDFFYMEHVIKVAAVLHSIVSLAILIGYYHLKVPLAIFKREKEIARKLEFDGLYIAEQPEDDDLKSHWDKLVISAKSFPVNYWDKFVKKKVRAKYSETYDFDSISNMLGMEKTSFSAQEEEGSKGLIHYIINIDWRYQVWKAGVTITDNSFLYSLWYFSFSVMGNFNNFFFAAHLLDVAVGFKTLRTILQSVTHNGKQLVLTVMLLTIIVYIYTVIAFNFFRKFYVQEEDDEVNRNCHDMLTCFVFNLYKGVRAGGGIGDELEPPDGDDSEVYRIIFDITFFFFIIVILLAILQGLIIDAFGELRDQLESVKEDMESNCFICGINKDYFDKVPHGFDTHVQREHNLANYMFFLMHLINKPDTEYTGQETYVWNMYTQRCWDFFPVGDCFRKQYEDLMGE

Q: Which “time-lapse R-CEPIA1er [Ca2+]ER measurement in HEK cells stably expressing sfRyR” value does the source give for `CNC(=O)c1cc(Cl)cc(C)c1NC(=O)c1cc(Br)nn1-c1ncccc1Cl` [chlo, chlorantraniliprole] here?
A: The value was “their effect in intracellular Ca2 release is similar to that of the positive control chlo”.
